From patent US9045731B2, “Compositions and methods for improving the functional efficacy of stem cell-derived cardiomyocytes” (The Regents of the University of California, priority 2007, dated 2015)

Columns and labels:
H1-CMs [1] = test: Cytosolic Ca2+ transients (Fura-2/AM spectrofluorometry) in H1-CMs; format: cell-based, human
Experimental: H1 cells were grown on irradiated mEFs from 13.5-day embryos of CF-1 mice and propagated as previously described (3). The culture medium consisted of 80% Dulbecco's modified Eagle's medium, 20% knockout serum replacement, 4 ng/ml basic fibroblast growth factor, 1 mmol/L glutamine, 0.1 mmol/L β-mercaptoethanol, and 1% nonessential amino acid solution (all from Gibco-BRL, Gaithersburg, Md.). To induce the formation of embryoid bodies (EBs), hESCs were detached using 1 mg/mL type IV collagenase (Gibco-BRL) and transferred to Petri dishes containing 80% Dulbecco's modified Eagle's medium, 20% fetal bovine serum defined (HyClone, Logan, Utah), 1 mmol/L glutamine, and 1% nonessential amino acid stock in the absence of β-FGF. The aggregates were cultured in suspension for 7 days, followed by plating on gelatin-coated (0.1%; Sigma-Aldrich, St. Louis) 6-well plates to form hESC-CMs.
(§1) For isolating hESC-CMs, beating outgrowths were microsurgically dissected from H1- (7+11 to 17 or 18-24 days) and HES2- (18-24 days) derived EBs by a glass knife, (4) followed by incubation in collagenase II (1 mg/mL) at 37° C. for 30 min. The isolated cells were incubated with KB solution containing (mM): 85 KCl, 30 K2HPO4, 5 MgSO4, 1 EGTA, 2 Na2-ATP, 5 pyruvic acid, 5 creatine, 20 taurine, 20 d-glucose, at room temperature for 30 min. After the cells were plated on laminin-coated glass coverslips for 1 hr at 37° C., regular culture media was added. […] Calcium recordings from cell clusters containing 10-15 cells were performed within 48 hrs after plating.
(§2) A spectrofluorometric method with Fura-2/AM as the Ca^2+ indicator was used for measuring [Ca^2+]i. FLV- or hESC-CMs were incubated with 5 μM Fura-2/AM and 0.2% pluronic F-127 for 30 min at 37° C. Fluorescent signals obtained upon excitation at 340 nm (F340) and 380 nm (F380) were recorded from cells perfused with Tyrode solution containing (mM): 140 NaCl, 5.0 KCl, 1.0 CaCl2, 1.0 MaCl2, 10.0 glucose and 10 HEPES (pH 7.4) unless otherwise indicated. Data were analyzed using the Ionwizard software (Version 5, IonOptix) to generate the Ca transient parameters reported in this study. The F340/F380 ratio was used to represent cytosolic [Ca^2+]i. To induce cytoplasmic Ca^2+ transients, CMs were stimulated by electrically pulsing from 0.1 to 0.5 Hz or by caffeine application as indicated. For electrical stimulations, Ca^2+ transients were recorded and analyzed after a series of depolarizations that enabled each transient to fully decay so as to establish a steady-state SR content.

FLV-CMs = test: Cytosolic Ca2+ transients (Fura-2/AM spectrofluorometry) in human fetal left ventricular CMs; format: cell-based; conditions: caffeine 10 mM, brief exposure, no Ca2+ in extracellular bath
Source text: Human FLV-CMs and adult-CMs were isolated and experimented according to protocols approved by the UC Davis IUPAC and IRB (Protocol #200614787-1 and # 200614594-1). Briefly, fetal human hearts (16-18 weeks, Advanced Bioscience Resources, INC. Alameda, Calif.) and adult human hearts (18+ years, National Disease Research Interchange, Philadelphia, Pa.) were perfused with enzymatic solutions using a customized Langendorff apparatus as previously described (19). […]
as §2, with “FLV- or hESC-CMs were incubated with 5 μM Fura-2/AM and 0.2% pluronic F-127 for 30 min at 37° C.” left out, “The F340/F380 ratio was used to represent cytosolic [Ca^2+]i. To induce cytoplasmic Ca^2+ transients, CMs were stimulated by electrically pulsing from 0.1 to 0.5 Hz or by caffeine application as indicated.” left out

HES2-CMs = test: Cytosolic Ca2+ transients (Fura-2/AM spectrofluorometry) in HES2-CMs; format: cell-based, human
Experimental: Briefly, HES2 cells were grown on mitomycin C- (Sigma; St Louis, Mo., USA) inactivated mouse embryonic fibroblasts (mEFs). Culture medium consisted of DMEM (Invitrogen, Carlsbad, Calif.) containing 2 mM L-glutamine, insulin-transferrin-selenium, non-essential amino acids, 90 μM β-mercaptoethanol, and 20% FBS (Hyclone, Logan, Utah). HES2 cells were passaged manually (“cut-and-paste”), by cutting colony into pieces and removing them from the mEFs using dispase (8 mg/mL, Invitrogen, Carlsbad, Calif.). For cardiac differentiation, HES2 cells were removed from the mEFs, resuspended and broken into pieces, followed by co-culturing with the immortalized endoderm-like END2 cells at 100% confluence (6).
as §1, §2

hESC-CMs = test: Cytosolic Ca2+ transients (Fura-2/AM), HES2- and H1-CMs taken together; format: cell-based, human; conditions: for Effect on Vmax, upstroke of electrically evoked Ca2+ transients: 10 μM ryanodine, 30 min
Experimental: as §1, §2

H1-CMs [2] = test: Cytosolic Ca2+ transients (Fura-2/AM) in adenovirus-transduced H1-CMs; format: cell-based, human; conditions: for Electrically evoked Ca2+ transient amplitude after ryanodine / Upstroke velocity of Ca2+ transients after ryanodine: 10 μM ryanodine, 30 minutes
Source text: Human cardiac calsequestrin 2 (sc119365, Origene technologies, MD) was cloned and ligated into adenovirus shuttle vectors pAdCMV-IRES-GFP using primers creating Bmt and Spe I sites (pAdCMV-CSQ-IRES-GFP). IRES, internal ribosomal entry site, allows the simultaneous translation of CSQ and the fluorescence marker (GFP) with a single transcript. The truncated CSQ mutant was constructed in pAdCMV-IRES-GFP by deleting 817 bp (53 bp-869 bp) using the two EcoN I sites inside CSQ's coding sequence (Ad-CSQΔ). The resulting product after Hind III cutting was self-ligated to produce another control of pAdCMV-GFP (Ad-GFP). Adenoviruses were generated by Cre-lox recombination of purified ψ5 viral DNA and shuttle vector DNA using Cre4 cells as described previously (56).
For isolating H1-CMs, beating outgrowths were microsurgically dissected from H1- derived EBs (7+14 to 7+21 days) by a glass knife, followed by incubation in collagenase II (1 mg/mL) at 37° C. for 30 min. The isolated cells were incubated with KB solution containing (mM): 85 KCl, 30 K2HPO4, 5 MgSO4, 1 EGTA, 2 Na2-ATP, 5 pyruvic acid, 5 creatine, 20 taurine, 20 d-glucose, at room temperature for 30 min. After the cells were plated on gelatin-coated glass coverslips for 1 hr at 37° C., regular culture media was added. After 48 hours, plated H1-CMs were infected with adenoviruses for 3 hours. Recordings were performed within 24-48 hrs after infection.
A spectrofluorometric method with Fura-2/AM as the Ca^2+ indicator was used for measuring [Ca^2+]i. H1-CMs were incubated with 10 μM Fura-2/AM and 0.2% pluronic F-127 for 30 min at 37° C. Fluorescent signals obtained upon excitation at 340 nm (F340) and 380 nm (F380) were recorded from cells perfused with Tyrode solution containing (mM): 140 NaCl, 5.0 KCl, 1.0 CaCl2, 1.0 MaCl2, 10.0 glucose and 10 HEPES (pH 7.4) unless otherwise indicated. Data were analyzed using the Ionwizard software (Version 5, IonOptix) to generate the Ca^2+ transient parameters reported in this study. The F340/F380 ratio was used to represent cytosolic [Ca^2+]i. To induce cytoplasmic Ca^2+ transients, CMs were stimulated by electrically pulsing from 0.1 to 0.5 Hz or by caffeine application as indicated.
For electrical stimulations, Ca^2+ transients were recorded and analyzed after a series of depolarizations that enabled each transient to fully decay so as to establish a steady-state SR content.

Cn1c(=O)c2c(ncn2C)n(C)c1=O [caffeine]
Percentage of cells with caffeine-induced Ca2+ transients (caffeine-responsive cells) (H1-CMs [1]; caffeine 10 mM, brief exposure, no Ca2+ in extracellular bath, H1-CMs): 35% | Percentage of cells with caffeine-induced rise in cytosolic Ca2+ (caffeine-responsive cells) (FLV-CMs): 65% | Percentage of cells with caffeine-induced Ca2+ transients (caffeine-responsive cells) (HES2-CMs; caffeine 10 mM, brief exposure, no Ca2+ in extracellular bath, HES2-CMs): 40% | Percentage of cells with caffeine-induced large Ca2+ transients (hESC-CMs; hESC-CMs (HES2- and H1-CMs pooled)): ~38% | Cytosolic Ca2+ response to caffeine (H1-CMs [2]; caffeine 10 mM, brief exposure, transduced H1-CMs): robust cytosolic Ca^2+ increase

C/C=C(/C)C(=O)O[C@H]1C(C)=C2[C@H]([C@@H]1OC(=O)CCCCCCC)[C@@](C)(OC(C)=O)C[C@H](OC(=O)CCC)[C@@]1(O)[C@H]2OC(=O)[C@@]1(C)O [thapsigargin]
Effect on Vmax, decay of electrically evoked Ca2+ transients (H1-CMs [1]; thapsigargin 0.5 μM, 15 min, H1-CMs): significantly slowed | Effect on electrically evoked Ca2+ transient amplitude (H1-CMs [1]; thapsigargin 0.5 μM, 15 min, caffeine-responsive H1-CMs): significantly reduced | Effect on Vmax, decay of electrically evoked Ca2+ transients (HES2-CMs; thapsigargin 0.5 μM, 15 min, HES2-CMs): significantly slowed | Effect on electrically evoked Ca2+ transient amplitude (HES2-CMs; thapsigargin 0.5 μM, 15 min, caffeine-responsive HES2-CMs): significantly reduced | Decay velocity of Ca2+ transients after thapsigargin (H1-CMs [2]; thapsigargin (0.5 μM), 15 min, H1-CMs transduced with Ad-CSQ): 61% | Decay velocity of Ca2+ transients after thapsigargin (H1-CMs [2]; thapsigargin (0.5 μM), 15 min, H1-CMs transduced with Ad-CSQΔ): 65% | Decay velocity of Ca2+ transients after thapsigargin (H1-CMs [2]; thapsigargin (0.5 μM), 15 min, H1-CMs transduced with Ad-GFP): 69% | Ca2+ transient amplitude after thapsigargin (H1-CMs [2]; thapsigargin (0.5 μM), 15 min, transduced H1-CMs (all three groups)): unchanged

ryanodine
Effect on electrically evoked Ca2+ transient amplitude (H1-CMs [1]; 10 μM ryanodine, 30 min, caffeine-insensitive H1-CMs): not affected | Reduction of electrically evoked Ca2+ transient amplitude (H1-CMs [1]; 10 μM ryanodine, 30 min, caffeine-responsive H1-CMs): 18±4.3% | Effect on electrically evoked Ca2+ transient amplitude (HES2-CMs; 10 μM ryanodine, 30 min, caffeine-insensitive HES2-CMs): not affected | Reduction of electrically evoked Ca2+ transient amplitude (HES2-CMs; 10 μM ryanodine, 30 min, caffeine-responsive HES2-CMs): 37±4.8% | Effect on Vmax, upstroke of electrically evoked Ca2+ transients (hESC-CMs; caffeine-insensitive cells): not | Effect on Vmax, upstroke of electrically evoked Ca2+ transients (hESC-CMs; caffeine-responsive cells): significantly slowed | Electrically evoked Ca2+ transient amplitude after ryanodine (H1-CMs [2]; H1-CMs transduced with Ad-CSQ): 78% | Upstroke velocity of Ca2+ transients after ryanodine (H1-CMs [2]; H1-CMs transduced with Ad-CSQ): 67% | Electrically evoked Ca2+ transient amplitude after ryanodine (H1-CMs [2]; H1-CMs transduced with Ad-CSQΔ): 84% | Upstroke velocity of Ca2+ transients after ryanodine (H1-CMs [2]; H1-CMs transduced with Ad-CSQΔ): 62% | Electrically evoked Ca2+ transient amplitude after ryanodine (H1-CMs [2]; H1-CMs transduced with Ad-GFP): 80% | Upstroke velocity of Ca2+ transients after ryanodine (H1-CMs [2]; H1-CMs transduced with Ad-GFP): 64%
